# Earlier results, collected in PMC7060171, “Evaluation of Radiation dosimetry of ^99mTc-HYNIC-PSMA and imaging in prostate cancer” (Scientific Reports, 2020).
# Settings: not given
row,Compound,Effective dose
1,O=C(O)CC[C@H](NC(=O)N[C@@H](CCCCNC(=O)c1ccc([18F])nc1)C(=O)O)C(=O)O [^18F-DCFPyL],1.39E-02 mSv/MBq
2,O=C(O)CC[C@H](NC(=O)N[C@@H](CCCCNC(=O)[C@H](Cc1ccc2ccccc2c1)NC(=O)c1ccc(CNC(=O)[C@H](CCC(=O)O)NC(=O)[C@H](CCC(=O)O)NC(=O)c2ccc([18F])nc2)cc1)C(=O)O)C(=O)O [^18F-PSMA-1007],2.2E-02 mSv/MBq
3,O=C([O-])CN(CCN(CC(=O)[O-])Cc1cc(CCC(=O)NCCCCCC(=O)NCCCC[C@H](NC(=O)N[C@@H](CCC(=O)O)C(=O)O)C(=O)O)ccc1[O-])Cc1cc(CCC(=O)O)ccc1[O-].[68Ga+3].[OH3+] [^68Ga-PSMA-11],2.36E-02 mSv/MBq
4,O=C(O)CC[C@H](NC(=O)N[C@@H](CCC(=O)N[C@@H](CCCCN(Cc1nccn1CC(=O)N(CC(=O)O)CC(=O)O)Cc1nccn1CC(=O)N(CC(=O)O)CC(=O)O)C(=O)O)C(=O)O)C(=O)O.[99Tc+4].[CH-]=O.[CH-]=O.[CH-]=O.[Cl-] [^99mTc-MIP-1404],8.8E-03 mSv/MBq

# Same assay, conditions: conventional 99mTc-labelled radiopharmaceuticals used in SPECT/CT scans
row,Compound,Effective dose
1,"O=P(O)(O)CP(=O)(O)O (99mTc complex, metal not drawn) [MDP]",5.68E-03 mSv/MBq
2,[C-]#[N+]CC(C)(C)OC.[C-]#[N+]CC(C)(C)OC.[C-]#[N+]CC(C)(C)OC.[C-]#[N+]CC(C)(C)OC.[C-]#[N+]CC(C)(C)OC.[C-]#[N+]CC(C)(C)OC.[Tc] [MIBI],7.83E-03 mSv/MBq
